Reference: patent US20190275040A1, “COMPOUNDS AND METHODS FOR TREATING OR PREVENTING ALZHEIMER'S DISEASE” (YALE UNIVERSITY, priority 2016, published 2019)

What was measured:
[1] = tested on: Aβo-induced suppression of LTP in hippocampal slices; experiment: Hippocampal CA3-CA1 LTP in acute brain slices with or without Aβo; type: cell-based, mouse; conditions: WT slices
Description: FIG. 3A depicts WT slices that were treated with either vehicle or Aβo 30 min prior to theta burst stimulation (TBS). The slope of the field excitatory postsynaptic potential (fEPSP) is plotted as a function of time. Data are graphed as mean±SEM (n=6-12). Inset, representative traces immediately before TBS and 60 min post-TBS (red) are superimposed. FIG. 3B depicts WT and Pyk2−/− brain slices in the absence of Aβo, plotted as in FIG. 3A. FIG. 3C depicts average fEPSPs at 50-60 min post-TBS plotted for the indicated conditions as mean±SEM (n=3-20). Where indicated, 500 nM PF719 kinase inhibitor was pre-incubated with WT slices for 60 min prior to addition of Aβo or vehicle for 30 min, and then TBS. One-way ANOVA, **, p<0.01.
The role of Pyk2 in Aβo-induced disruption of synaptic plasticity using hippocampal CA3 to CA1 LTP has also been evaluated, comparing WT and Pyk2−/− slices. […]
400-μm coronal slices were prepared as described elsewhere herein and submerged in a recording chamber (BSC-PC, Warner Instruments) containing aCSF with 2.4 mM CaCl2 that was continuously oxygenated (95% O2, 5% CO2). […] Extracellular field excitatory post-synaptic potentials (fEPSPs) were recorded using a glass microelectrode (2-6 MS2) (4878, World Precision Instruments) filled with aCSF, and placed in the Stratum radiatum of CA1 neurons. […]

FAK [2] = molecular target: T1, FAK (Homo sapiens, UniProt Q05397); conditions: cited from earlier work
T1 sequence (Q05397 whole entry, species assumed): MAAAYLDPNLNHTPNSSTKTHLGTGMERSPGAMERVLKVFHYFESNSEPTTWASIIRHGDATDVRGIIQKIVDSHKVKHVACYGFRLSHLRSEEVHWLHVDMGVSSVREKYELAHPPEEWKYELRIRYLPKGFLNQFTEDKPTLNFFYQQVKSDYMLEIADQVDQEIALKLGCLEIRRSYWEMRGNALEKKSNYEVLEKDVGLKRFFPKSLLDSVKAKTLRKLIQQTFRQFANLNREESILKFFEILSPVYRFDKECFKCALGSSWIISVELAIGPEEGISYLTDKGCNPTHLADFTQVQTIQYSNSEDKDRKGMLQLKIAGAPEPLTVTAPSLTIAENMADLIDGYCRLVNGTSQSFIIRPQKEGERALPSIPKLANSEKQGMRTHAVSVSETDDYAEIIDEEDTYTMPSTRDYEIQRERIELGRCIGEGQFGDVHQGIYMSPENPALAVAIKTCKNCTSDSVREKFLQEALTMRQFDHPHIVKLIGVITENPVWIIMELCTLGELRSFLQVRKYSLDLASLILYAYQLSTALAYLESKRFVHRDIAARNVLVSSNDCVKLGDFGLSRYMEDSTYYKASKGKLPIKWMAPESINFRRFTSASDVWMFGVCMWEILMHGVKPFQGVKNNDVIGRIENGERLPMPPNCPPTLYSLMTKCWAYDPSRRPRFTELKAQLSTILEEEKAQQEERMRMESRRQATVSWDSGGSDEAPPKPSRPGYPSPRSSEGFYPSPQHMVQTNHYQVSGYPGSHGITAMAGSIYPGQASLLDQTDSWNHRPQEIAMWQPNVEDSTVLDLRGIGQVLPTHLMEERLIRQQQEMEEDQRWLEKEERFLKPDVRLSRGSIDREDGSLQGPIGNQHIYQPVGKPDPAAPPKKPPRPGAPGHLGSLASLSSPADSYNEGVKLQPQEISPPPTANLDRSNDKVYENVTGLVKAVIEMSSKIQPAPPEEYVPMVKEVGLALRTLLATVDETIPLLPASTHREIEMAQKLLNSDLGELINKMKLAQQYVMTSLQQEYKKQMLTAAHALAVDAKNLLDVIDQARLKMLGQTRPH

FAK [3] = molecular target: T1, FAK; experiment: FAK Ki and selectivity versus Pyk2; type: biochemical

- selectivity Pyk2 versus FAK (FAK [3]): 30 ×
SMILES: CCOc1ccc2nc(SCc3nc(N)nc(N4CCOCC4)n3)sc2c1 [PF-719, 4-(((6-ethoxybenzo[d]thiazol-2-yl)thio)methyl)-6-morpholino-1,3,5-triazin-2-amine]
- Aβo-induced suppression of LTP ([1]; 500 nM, Aβo 30 min before TBS): protects these slices from Aβo-induced suppression
- LTP without Aβo ([1]; nM concentrations (500 nM, 60 min pre-incubation)): does not block LTP
- Ki (FAK [2]): 450 nM
